Source: the supplement of paper PMC4932681
Counter-ions that a name gives are not always drawn.

Columns and labels:
BT-474 Tam1 [1] = assay: drug sensitivity score (DSS) (DSS (dimensionless)); higher = more sensitive; extreme values may be limits of the assay; settings: 4-OH-tamoxifen in medium 1 µM; 72 h
Method in brief: (§1)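 Breast cancer cell lines and their resistant derivatives were seeded into 384-well plates containing library drugs at five concentrations across a 10 000-fold range, with resistant lines kept in medium with 1 μM of the selecting drug. After 72 h at 37 °C, CellTiter-Glo viability was read on a PHERAstar and normalised to vehicle-only and positive controls. Logistic dose–response fits in the Breeze pipeline gave drug sensitivity score, relative IC50 (curve midpoint) and top-dose inhibition.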

BT-474 Tam2 [2] = assay: as above; settings: 4-OH-tamoxifen in medium 1 µM; 72 h
Method in brief: as §1

BT-474 [3] = assay: as above; settings: 72 h
Method in brief: as §1

MCF-7 Tam1 [4] = assay: as above; settings: 4-OH-tamoxifen in medium 1 µM; 72 h
Method in brief: as §1

MCF-7 [5] = assay: as above; settings: 72 h
Method in brief: as §1

T-47D Tam1 [6] = assay: as above; settings: 4-OH-tamoxifen in medium 1 µM; 72 h
Method in brief: as §1

T-47D Tam2 [7] = assay: as above; settings: 4-OH-tamoxifen in medium 1 µM; 72 h
Method in brief: as §1

T-47D [8] = assay: as above; settings: 72 h
Method in brief: as §1

ZR-75-1 Tam1 [9] = assay: as above; settings: 4-OH-tamoxifen in medium 1 µM; 72 h
Method in brief: as §1

ZR-75-1 Tam2 [10] = assay: as above; settings: 4-OH-tamoxifen in medium 1 µM; 72 h
Method in brief: as §1

ZR-75-1 [11] = assay: as above; settings: 72 h
Method in brief: as §1

BT-474 Tam1 [12] = assay: relative IC50 (midpoint of fitted logistic curve, plateau may be below 50% inhibition; CellTiter-Glo viability); higher = less potent; settings: 4-OH-tamoxifen in medium 1 µM; 72 h
Method in brief: as §1

BT-474 Tam2 [13] = assay: as above; settings: 4-OH-tamoxifen in medium 1 µM; 72 h
Method in brief: as §1

BT-474 [14] = assay: as above; settings: 72 h
Method in brief: as §1

MCF-7 Tam1 [15] = assay: as above; settings: 4-OH-tamoxifen in medium 1 µM; 72 h
Method in brief: as §1

MCF-7 [16] = assay: as above; settings: 72 h
Method in brief: as §1

T-47D Tam1 [17] = assay: as above; settings: 4-OH-tamoxifen in medium 1 µM; 72 h
Method in brief: as §1

T-47D Tam2 [18] = assay: as above; settings: 4-OH-tamoxifen in medium 1 µM; 72 h
Method in brief: as §1

T-47D [19] = assay: as above; settings: 72 h
Method in brief: as §1

ZR-75-1 Tam1 [20] = assay: as above; settings: 4-OH-tamoxifen in medium 1 µM; 72 h
Method in brief: as §1

ZR-75-1 Tam2 [21] = assay: as above; settings: 4-OH-tamoxifen in medium 1 µM; 72 h
Method in brief: as §1

ZR-75-1 [22] = assay: as above; settings: 72 h
Method in brief: as §1

Compound	drug sensitivity score (BT-474 Tam1 [1])	drug sensitivity score (BT-474 Tam2 [2])	drug sensitivity score (BT-474 [3]; 4-OH-tamoxifen in medium 0 µM)	drug sensitivity score (BT-474 [3]; 4-OH-tamoxifen in medium 1 µM)	drug sensitivity score (MCF-7 Tam1 [4])	drug sensitivity score (MCF-7 [5]; 4-OH-tamoxifen in medium 0 µM)	drug sensitivity score (MCF-7 [5]; 4-OH-tamoxifen in medium 1 µM)	drug sensitivity score (T-47D Tam1 [6])	drug sensitivity score (T-47D Tam2 [7])	drug sensitivity score (T-47D [8]; 4-OH-tamoxifen in medium 0 µM)	drug sensitivity score (T-47D [8]; 4-OH-tamoxifen in medium 1 µM)	drug sensitivity score (ZR-75-1 Tam1 [9])	drug sensitivity score (ZR-75-1 Tam2 [10])	drug sensitivity score (ZR-75-1 [11]; 4-OH-tamoxifen in medium 0 µM)	drug sensitivity score (ZR-75-1 [11]; 4-OH-tamoxifen in medium 1 µM)	relative IC50 (BT-474 Tam1 [12]) [nM]	relative IC50 (BT-474 Tam2 [13]) [nM]	relative IC50 (BT-474 [14]; 4-OH-tamoxifen in medium 0 µM) [nM]	relative IC50 (BT-474 [14]; 4-OH-tamoxifen in medium 1 µM) [nM]	relative IC50 (MCF-7 Tam1 [15]) [nM]	relative IC50 (MCF-7 [16]; 4-OH-tamoxifen in medium 0 µM) [nM]	relative IC50 (MCF-7 [16]; 4-OH-tamoxifen in medium 1 µM) [nM]	relative IC50 (T-47D Tam1 [17]) [nM]	relative IC50 (T-47D Tam2 [18]) [nM]	relative IC50 (T-47D [19]; 4-OH-tamoxifen in medium 0 µM) [nM]	relative IC50 (T-47D [19]; 4-OH-tamoxifen in medium 1 µM) [nM]	relative IC50 (ZR-75-1 Tam1 [20]) [nM]	relative IC50 (ZR-75-1 Tam2 [21]) [nM]	relative IC50 (ZR-75-1 [22]; 4-OH-tamoxifen in medium 0 µM) [nM]	relative IC50 (ZR-75-1 [22]; 4-OH-tamoxifen in medium 1 µM) [nM]
C[C@]12CC[C@H](O)CC1=CC[C@@H]1[C@@H]2CC[C@]2(C)C(c3cccnc3)=CC[C@@H]12 [Abiraterone (CB-7598)]	0	0	0	0	0	0	0	0	0	0	0	0	0	0	0	> 5000	> 5000	> 5000	> 5000	> 5000	> 5000	> 5000	> 5000	> 5000	> 5000	> 5000	> 5000	> 5000	> 5000	> 5000
CNNCc1ccc(C(=O)NC(C)C)cc1 [Procarbazine]	0	0	0	0	0	0	0	0	0	0	0	0	0	0	0	> 10000	> 10000	> 10000	> 10000	> 10000	> 10000	> 10000	> 10000	> 10000	> 10000	> 10000	> 10000	> 10000	> 10000	> 10000
CCOc1cc2ncc(C#N)c(Nc3ccc(OCc4ccccn4)c(Cl)c3)c2cc1NC(=O)/C=C/CN(C)C [Neratinib]	28.3	28.7	20.8	25.6	0	0	2.07	3.53	2.11	0.25	0	0	0	0	0	4.18	3.76	9.18	6.18	> 1000	> 1000	–	97.6	218	–	> 1000	> 1000	> 1000	> 1000	> 1000
Cn1cc(C2=C(c3cn(C4CCN(Cc5ccccn5)CC4)c4ccccc34)C(=O)NC2=O)c2ccccc21 [Enzastaurin]	0	0	0	0	0	0	0	0	0	0	0	0	0	0	0	> 10000	> 10000	> 10000	> 10000	> 10000	> 10000	> 10000	> 10000	> 10000	> 10000	> 10000	> 10000	> 10000	> 10000	> 10000
Nc1nc2[nH]cc(CCc3ccc(C(=O)N[C@@H](CCC(=O)O)C(=O)O)cc3)c2c(=O)[nH]1 [Pemetrexed]	0	0	0	0	0	0	0.305	0	0	0	0	0	0	0	0	> 10000	> 10000	> 10000	> 10000	> 10000	> 10000	–	> 10000	> 10000	> 10000	–	> 10000	> 10000	> 10000	> 10000
O=C1CCC(N2C(=O)c3ccccc3C2=O)C(=O)N1 (stereo unspecified) [Thalidomide]	0	0	0	0	0	0	0	0	0	0	0	0	0	0	0.0754	> 10000	> 10000	> 10000	> 10000	> 10000	> 10000	> 10000	> 10000	> 10000	> 10000	–	> 10000	> 10000	> 10000	–
CN(C)c1nc(N(C)C)nc(N(C)C)n1 [Altretamine]	0	0	0	0	0	0	0.0496	2.61	0	0	0.283	0	0	0	0	> 10000	> 10000	> 10000	> 10000	> 10000	> 10000	–	3370	> 10000	> 10000	–	> 10000	> 10000	> 10000	> 10000
CC1=C2C[C@H]3[C@@H](CC=C4C[C@@H](O)CC[C@@]43C)[C@@H]2CC[C@]12O[C@@H]1C[C@H](C)CN[C@H]1[C@H]2C [Cyclopamine]	0	0	0	0	0	0	0	0	0	0	0	0	0	0	0	> 10000	> 10000	> 10000	> 10000	> 10000	> 10000	> 10000	> 10000	> 10000	> 10000	> 10000	> 10000	> 10000	> 10000	> 10000
CC[C@@]1(O)C(=O)OCc2c1cc1n(c2=O)Cc2cc3ccccc3nc2-1 [Camptothecin]	0	0	0	0	3	23	8.74	15.6	4.93	15.6	3.21	12.4	13.3	13.9	7.82	> 5000	> 5000	> 5000	> 5000	1350	32.6	649	32.6	302	44.2	–	49.7	59.8	38.4	95.6
CC(C)(C#N)c1cc(Cn2cncn2)cc(C(C)(C)C#N)c1 [Anastrozole]	0	0	0	0	0	0	0	0	0	0	0	0	0	0	0	> 10000	> 10000	> 10000	> 10000	> 10000	> 10000	> 10000	> 10000	> 10000	> 10000	> 10000	> 10000	> 10000	> 10000	> 10000
Cc1ccc([N+](=O)[O-])cc1S(=O)(=O)N(C)/N=C/c1cnc2ccc(Br)cn12 [PIK-75 (HCl)]	29.8	26.8	21.2	27.2	22.6	22.3	26.4	25.1	20.5	21.8	15.3	14.9	18.9	16.9	16.7	31.6	58.7	148	48.6	50.5	33.2	30.5	48.3	82.6	33.2	81.3	309	108	133	94.5
COCC[n+]1c2c(n(Cc3cnccn3)c1C)C(=O)c1ccccc1C2=O [YM155]	19.6	16.6	25.6	20.9	25.8	43	26.5	14.2	11.4	27.1	17.6	15.3	16.2	28.5	19	218	337	71.1	171	57	2.65	49.6	526	811	47.5	299	454	358	36.5	202
COc1ccc(-c2ccc3c(N4CCOC[C@@H]4C)nc(N4CCOC[C@@H]4C)nc3n2)cc1CO [AZD8055]	12.7	8.38	11.8	13.6	6.06	20.2	11.5	17.1	10.2	16.7	8.08	16.2	19.8	18.4	17.4	378	399	60.7	267	147	48.4	130	39.9	227	61.1	423	38.9	18.5	31.3	12.3
Cc1c(CN2CCN(C(=O)[C@H](C)O)CC2)sc2c(N3CCOCC3)nc(-c3cnc(N)nc3)nc12 [GDC-0980]	18.3	15.1	13.5	18.4	9.79	17.4	15.9	15.3	12.4	14.7	12.1	13.5	14.9	16.5	11.8	154	303	137	170	226	123	146	117	212	199	390	178	160	86.5	145
